Laboratory results published in US20230355596A1, “COMPOSITIONS AND METHODS OF USING NMDAR INHIBITORS AND KINASE INHIBITORS TO TREAT LIVER CANCER” (The University of Hong Kong, priority 2022, published 2023).

Columns and labels:
[1] = test system: patient-derived xenografts; assay: Limiting dilution and serial transplantation into secondary mouse recipients; type: in vivo
Method: 5×10^5 MHCC97L cells, 3.5×10^5 cells (for PDX1) and 1×10^5 cells (for PDX2) dissociated from HCC patient derived xenograft (PDX), were injected subcutaneously into the left flank of 4 to 5-week-old male BALB/c nude mice and NOD/SCID mice, respectively. 1×10^4 RIL-175 cells were injected into the right median lobe of the livers from 9 to 12-week-old male C57BL/6N mice. Size of subcutaneously xenografted tumors was measured by an external caliper and tumor volume was estimated by the equation: Volume=½ (Length×Width^2), where the length and width represent the largest and smallest diameters, respectively. Drug administration began when the subcutaneous tumor reached ˜0.05 cm3 in size or at day 5 post-injection (for RIL-175 cells), at which point mice were divided into four groups randomly for daily treatment with DMSO, ifenprodil (20 mg/kg/day, intraperitoneally), sorafenib (28 mg/kg/day, orally), or the combination. Ifenprodil and sorafenib were purchased from Selleckchem (#54091) and LC laboratories (#S-8502), respectively. The drug treatment was started after grouping, and lasted for 21 days. Tumor volume and body weight of each mouse were then measured every two days. The estimated tumor volume served as a guide for determining the day when the mice were sacrificed to take actual measurements on the resected tumors. The mice were sacrificed, and the tumor tissues were collected at the end of treatment. Part of the tumor tissues was snap-frozen in liquid nitrogen for protein extraction and immunoblot analysis. Part of the tissues was fixed in 4% paraformaldehyde (PFA) at room temperature for histological staining. The remaining tissues were dissociated into single cells for the limiting dilution spheroid formation assay. To evaluate the tumor-initiating and self-renewal abilities of the drug-treated tumors derived from MHCC97L cells and PDX1 in vivo, limiting dilution and serial transplantation assays were performed. 500, 1,000, 5,000, 10,000, 50,000 cells dissociated from the residual tumor tissues were injected subcutaneously into either flank of 4-5 week-old mice. No drug treatment was further applied. The mice were checked every two days, and tumor incidence and latency were recorded. To evaluate HCC metastases, 4×10^4 RIL-175 cells were injected through tail vein into 6- to 8-week-old male nude mice. Drug administration began at day 5 post-injection, and daily treatment with DMSO, ifenprodil (20 mg/kg/day, intraperitoneally), sorafenib (28 mg/kg/day, orally), or the combination was applied for 10 days before resection of lung tumors. At five and twelve days after the tail-vein injection, the mice were administered 100 mg/kg D-luciferin via peritoneal injection for bioluminescent imaging (using the PE IVIS Spectrum in vivo imaging system) to monitor the lung metastasis.
To determine the efficacy of the drug combination of IFEN and SOR in vivo, MHCC97L cell- and HCC patient-derived xenografts were implanted into mice. […] Briefly, HCC patient-derived xenograft was subcutaneously injected in NOD/SCID mice and treated with 20 mg/kg ifenprodil, 28 mg/kg sorafenib, or combination of ifenprodil and sorafenib, for 21 days. Protein lysates were collected from the resected tumors and analyzed by Western blot. […] Spheroid formation assay was performed on cells being harvested from the same residual xenografts to evaluate their self-renewal ability. […] Combined treatment of ifenprodil and sorafenib decreased the repropagation capability of HCC cells in vivo. Residual tumor cells were harvested from the drug(s)-treated patient-derived xenografts and 50,000, 10,000, 5,000, 1,000, and 500 cells were transplanted into secondary NOD/SCID mouse recipients (n=6 per group). Average tumor latency and incidence were recorded, and tumor-initiating cell frequency was calculated.

HCC organoids = assay: Limiting dilution spheroid formation assay on organoids; type: cell-based, human; settings: 20 μM ifenprodil and 8 μM sorafenib, 3 days
Method: Resuspended cells were cultured in DMEM/F12 (ThermoFisher Scientific) medium containing 0.25% methylcellulose (Sigma-Aldrich), 20 ng/ml EGF (Sigma-Aldrich), 10 ng/ml FGF (Sigma-Aldrich), 4 μg/ml insulin (Sigma-Aldrich), 1% B27 (ThermoFisher Scientific), and 1% antibiotic-antimycotic (ThermoFisher Scientific). Serial dilution of cells (5, 10, 20, 50, and 100 cells from the HCC cell lines and cells dissociated from the xenografts; 10, 20, 50, 100, 200 cells from the HCC organoids) were seeded onto a 96-well plate in 6 replicates for each dilution. Fresh medium was replenished every two days. The number of wells with spheroids formed were counted after a 10-day culture. The stem cell frequency was calculated using ELDA: Extreme Limiting Dilution Analysis (internet site bioinf.wehi.edu.au/software/elda/). In the data plots, the y-axis “fraction nonresponding” refers to the log proportion of number of cultures not responding to form spheroids, while the x-axis “dose (number of cells)” refers to the number of cells used in each culture. The slope of the line is the log-active cell fraction, representing the estimated active cell frequency in forming spheroids, and the dotted lines gives the 95% confidence interval.

MHCC97L cells = assay: Cell cycle analysis (PI staining, flow cytometry); type: cell-based, human; settings: 10 μM ifenprodil, 5 μM sorafenib, 24 hours
Text: Cells transduced with florescent proteins were trypsinized, washed with PBS, and resuspended in PBS containing 2% FBS. Resuspended cells were subjected to flow cytometry analysis using the BD FACSCantoII, ACEA NovoCyte Quanteon (Agilent) or BD LSR Fortessa Analyzer (BD Biosciences). The signal of TurboRFP and EGFP was detected by a 561 nm yellow-green laser (610/20 nm) and a 488 nm blue laser (530/30 nm), respectively. For cell cycle analysis, cells harvested by trypsinization were washed by PBS. Cell pellets were fixed by ice-cold 70% ethanol at 4° C. for 1 hour. The fixed cells were rehydrated by replacing ethanol with PBS for 15 minutes at room temperature for cell cycle analysis. To remove RNAs, 5 μl RNase A (10 mg/ml) per 500 μl PBS was added and incubated at 37° C. for 15 minutes. The DNA contents were stained by propidium iodide (ThermoFisher Scientific) for 1 hour at room temperature in dark. Signal was detected by a 561 nm yellow-green laser (581/15 nm). FlowJo software (v10.5.3, Becton Dickinson) was used for data analysis. For cell sorting, cells were collected following the normal trypsinization and PBS washing steps. Cell pellets were resuspended in PBS with 2% FBS and 2X antibiotic-antimycotic. […] Signal was detected by a 488 nm blue laser (530/40 nm). ˜500-fold more cells were sorted into culture medium supplemented with 10% FBS and 2X antibiotic-antimycotic. […]

[2] = 50,000 cells transplanted, n=6 per group
[3] = 50,000 cells transplanted, secondary NOD/SCID recipients

SMILES	Average tumor latency ([1]; 500 cells transplanted)	Tumor incidence ([1]; 500 cells transplanted)	Average tumor latency ([1]; 1,000 cells transplanted)	Tumor incidence ([1]; 1,000 cells transplanted)	Average tumor latency ([1]; 5,000 cells transplanted)	Tumor incidence ([1]; 5,000 cells transplanted)	Average tumor latency ([1]; 10,000 cells transplanted)	Tumor incidence ([1]; 10,000 cells transplanted)	Tumor incidence [1, 2]	Average tumor latency [1, 3]	ability of HCC organoids to assemble tumor spheroids (HCC organoids)	G1-phase cell-cycle arrest (MHCC97L cells)	cancer stemness in the HCC mouse models after treatment ([1]; HCC mouse models)
CC(C(O)c1ccc(O)cc1)N1CCC(Cc2ccccc2)CC1 (stereo not shown) [Ifenprodil, ifenprodil]	33 days	4/6	28.33 days	6/6	31.33 days	6/6	21 days	6/6	6/6	24 days	not either drug alone	not with either IFEN or SOR alone	–
CNC(=O)c1cc(Oc2ccc(NC(=O)Nc3ccc(Cl)c(C(F)(F)F)c3)cc2)ccn1 [Sorafenib, sorafenib]	34 days	3/6	29 days	6/6	21.67 days	6/6	21.33 days	6/6	6/6	22.33 days	not either drug alone	not with either IFEN or SOR alone	increased cancer stemness
